These results are taken from patent publication US20240140953A1, “INHIBITORS OF MENIN-MLL INTERACTION” (BIOMEA FUSION, INC., priority 2018, published 2024).

SMILES strings stand for the structures. Read-outs that look alike come from different tables or passages of the source.

Experiment [1] has as its system MOLM-13. Nature of the experiment: Long term proliferation assay (Table 3A), MOLM-13. The class given is cell-based. The conditions noted are these: Homo sapiens.
Experiment [2] relates to MV4-11 (MLL-AF4). Description: Proliferation study, CellTiterGlo, 4 days (Example 102), MV4-11. The class given is cell-based, human. The conditions noted are these: MV4-11, 4 days treatment; for IC50: CellTiterGlo; for MV4-11 (MLL-AF4) % max: maximal inhibition. The text has this:
The objective of the study was to evaluate the ability of representative compounds of the present invention, inhibitors of Menin/MLL interaction to inhibit cell proliferation. The proliferation inhibitory effect was investigated in two human MLL-leukemia cells selected on the bases of MLL fusion protein and listed in Table 102. HL-60 cell line was used as negative control.
ATP is present in all metabolically active cells and is considered as a marker for cell viability and proliferation. The metabolic cell activity was determined using the CellTiter-Glo kit from Promega, an ATP monitoring system based on the production of luminescence by the reaction of ATP with added UltraGlo® recombinant luciferase (Kawano et al., 2016), according to the supplier's experimental recommendations.
The described assay evaluates the ability of 4 representative compounds to inhibit the cell proliferation in the human MLL-leukemia cells plus a negative control cell line.
The assay provides potency values (IC50) for each test compound at a single time point Day 4 (T4).
Seven concentrations of the compounds (2.00E-05-6.67E-06-2.22E-06-7.41E-07-2.47E-07-8.23E-08-2.74E-08M), were assessed in duplicate in an individual test occasion in all the cell lines. MI-503 (Borkin et al., 2015) was used as reference compound and was tested at the same concentrations as the NCEs. 100% of proliferation is represented by the untreated cells (0.2% DMSO). The cell growth was monitored up to 4 days in culture.
MV4-11, MOLM-13 and HL-60 cells (see Table 2) were maintained in RPMI-1640 medium (Invitrogen, Cat. n. 618700, Batch n. 1965930) supplemented with 10% of Heat Inactivated FBS (Invitrogen, Cat n. 10500, Batch n. 08Q8078K) and 1% Pen-Strep (Invitrogen, Cat. N. 15140, Batch n. 1910859) and cultured at 37° C. in a humidified incubator with 5% CO2. All the cell lines grow in suspension and the cell density was maintained in a range of 2×10^5-1×10^6 viable cells/ml. Cells were pelleted at 130 g×5 min and conditioned medium was used to dilute the cell suspension.
Test items were dissolved in glass vials at 10 mM in DMSO with purity ≥99.9% (Sigma, D8418, batch n. SHBH4245V) and stored at −20° C. in 1.5 mL Eppendorf tubes.
Serial dilutions 1 to 3 in DMSO 100% were prepared starting from a 10 mM stock solutions to generate 7 points concentration response curve (CRC).
For each plate to test, one 0.4 μL copy plate and four 0.3 μL copy plates were then stamped into 96-well plates not treated for cell adhesion (Sarstedt—cat.no. 82.1581.001) by acoustic liquid Handling, Echo, at a concentration which was 500 fold the final assay concentration. Stamped plates were stored at −20° C. The final concentrations for the reference compound, MI-503, and the test items were: 2.00E-05, 6.67E-06, 2.22E-06, 7.41E-07, 2.47E-07, 8.23E-08 and 2.74E-08 M.
Cells were plated in 96-well flat bottom microtiter plates at cell density of 15,000 cells/ml for HL-60, 1000 cells/ml for MOLM-13 and 10,000 cell/ml for MV4-11. Cells were treated with 0.2% DMSO (Sigma, D8418, batch n. SHBH4245V) or serial dilutions of compounds (0.027 μM-20 μM) in DMSO (0.2% final concentration). Cells were incubated in a 5% CO2 incubator at 37° C. for 4 days. A CellTiterGlo viability assay (Promega) was employed. Luminescence was read by using VictorV (Perkin Elmer) multilabel plate reader using the standard protocol for luminescence in 96 well plate. The experiment was performed in duplicate.
Data were expressed as % of inhibition compared to the 0.2% DMSO negative control, and was calculated as follows: […]
CRCs were analysed by GraphPad and IC50 values were calculated by non-linear regression using 4 parameter-logistic equation. IC50 (μM) values were reported in the final data table. The curve fittings were performed leaving free all the parameters. Any constrain were reported in the results table.
(In general: In ATP-based viability assays light output follows the ATP content of the culture.)

Setting [3] is: 96 h, MOLM-13, Day 4, read-out: MOLM-13 Day 4 IC50.
Setting [4] is: Homo sapiens, MV4-11, 96 h, read-out: MV4-11 (MLL-AF4) IC50.
[5] abbreviates: Homo sapiens, MV4-11, 96 h, read-out: MV4-11 (MLL-AF4) pIC50 (converted).

Consider `Cn1nc(-c2cccnc2)cc1CC(=O)Nc1ccc(-c2cc3c(N4CCOCC4)ncnc3[nH]2)cc1` [Compound 11, 2-[1-methyl-3-(pyridin-3-yl)-1H-pyrazol-5-yl]-N-{4-[4-(morpholin-4-yl)-7H-pyrrolo[2,3-d]pyrimidin-6-yl]phenyl}acetamide], for which the IC50 was 260 nM in experiment [1] (setting [3]), 200 nM in experiment [2] (setting [4]), 282 nM in experiment [2] (setting [5]) and 280 nM in experiment [2] (read-out: MV4-11 (MLL-AF4) IC50). The “MV4-11 (MLL-AF4) % max” value in experiment [2] stood at 100%.

For `O=C(Cc1cc(-c2cccnc2)n[nH]1)Nc1ccc(-c2nc3c(N4CCOCC4)ncnc3[nH]2)cc1` [Compound 12, N-{4-[6-(morpholin-4-yl)-9H-purin-8-yl]phenyl}-2-[3-(pyridin-3-yl)-1H-pyrazol-5-yl]acetamide], the IC50 in experiment [1] (setting [3]) is 710 nM; in experiment [2] (setting [4]), 430 nM; in experiment [2] (setting [5]) it was 427 nM. Further, the “MV4-11 (MLL-AF4) % max” value in experiment [2] was 89%. Moreover, the “inhibition of cell viability (in words)” value in experiment [2] (up to 20 μM) was “fully inhibited”.

Take `O=C(Nc1ccc(-c2cc3c(N4CCOCC4)ncnc3[nH]2)cc1)Nc1cc(-c2cccnc2)n[nH]1` [Compound 9, 1-{4-[4-(morpholin-4-yl)-7H-pyrrolo[2,3-d]pyrimidin-6-yl]phenyl}-3-[3-(pyridin-3-yl)-1H-pyrazol-5-yl]urea]: the IC50 in experiment [1] (setting [3]) is 324 nM; in experiment [1] (264 h, MOLM-13, Day 11, read-out: MOLM-13 Day 11 IC50), 155 nM; in experiment [2] (setting [4]), 490 nM; in experiment [2] (setting [5]) it was 490 nM. In addition, the “MV4-11 (MLL-AF4) % max” value in experiment [2] was 102%.
